The values below come from ChEMBL document CHEMBL4732176, “Synthesis and biological evaluation of novel N-substituted benzamides as anti-migration agents for treatment of osteosarcoma” (Eur J Med Chem, 2021).

As a reminder, the IC50 is the concentration at which inhibition is half-maximal.

SMILES strings stand for the structures. Active and inactive are the calls of the source. The rule behind the calls is not given here. Some results are limits rather than exact numbers.

Focal adhesion kinase 1 (Homo sapiens), sequence (Q05397 2-1052 limits assumed): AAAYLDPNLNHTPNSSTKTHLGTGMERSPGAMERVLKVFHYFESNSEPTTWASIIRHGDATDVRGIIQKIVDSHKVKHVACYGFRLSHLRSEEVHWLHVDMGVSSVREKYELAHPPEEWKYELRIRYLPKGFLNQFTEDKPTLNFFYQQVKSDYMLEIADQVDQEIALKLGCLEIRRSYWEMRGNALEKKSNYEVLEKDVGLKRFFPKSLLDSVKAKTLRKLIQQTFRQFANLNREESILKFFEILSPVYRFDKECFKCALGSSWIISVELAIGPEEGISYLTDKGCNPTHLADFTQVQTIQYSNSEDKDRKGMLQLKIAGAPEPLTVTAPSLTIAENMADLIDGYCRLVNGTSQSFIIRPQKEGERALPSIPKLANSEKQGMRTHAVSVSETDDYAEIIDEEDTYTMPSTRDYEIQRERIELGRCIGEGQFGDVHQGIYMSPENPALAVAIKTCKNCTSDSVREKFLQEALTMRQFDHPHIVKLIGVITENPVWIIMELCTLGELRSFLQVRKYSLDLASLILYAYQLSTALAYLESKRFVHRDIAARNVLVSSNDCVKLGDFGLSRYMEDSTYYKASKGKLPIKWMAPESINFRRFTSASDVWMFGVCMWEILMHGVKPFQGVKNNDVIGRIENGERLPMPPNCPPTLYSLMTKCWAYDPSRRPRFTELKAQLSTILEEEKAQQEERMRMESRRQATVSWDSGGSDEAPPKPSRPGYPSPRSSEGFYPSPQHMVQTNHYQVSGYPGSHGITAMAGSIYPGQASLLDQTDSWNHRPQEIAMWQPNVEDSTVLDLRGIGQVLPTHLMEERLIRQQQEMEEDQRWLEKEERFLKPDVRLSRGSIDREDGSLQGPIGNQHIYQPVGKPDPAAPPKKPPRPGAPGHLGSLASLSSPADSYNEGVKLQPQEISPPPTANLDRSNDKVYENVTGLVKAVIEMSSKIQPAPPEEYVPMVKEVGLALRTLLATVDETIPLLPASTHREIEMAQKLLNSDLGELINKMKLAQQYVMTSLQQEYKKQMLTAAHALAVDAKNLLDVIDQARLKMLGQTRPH

One data set addresses Focal adhesion kinase 1 (Homo sapiens) (UniProt Q05397). Briefly: Inhibition of FAK phosphorylation in human MG-63 cells at 5 to 20 uM incubated for 48 hrs by Western blot analysis. The data set is classed as cell-based. The following applies: dose 5-20 µM. On the technique in general: Immunoblotting shows a protein as a band on a membrane.
As to `O=C(Nc1ccc2c(cnn2C(=O)c2ccccc2)c1)c1cc(Cl)ccc1O`, the inhibition result is “Active”.

A further data set has the same target. Briefly: Inhibition of FAK phosphorylation in human U2OS cells at 5 to 20 uM incubated for 48 hrs by Western blot analysis. The data set is classed as cell-based. The note with it: dose 5-20 µM.
As for `O=C(Nc1ccc2c(cnn2C(=O)c2ccccc2)c1)c1cc(Cl)ccc1O`, the inhibition result was “Active”.

Tested on in another data set: not listed separately
Briefly: Cytotoxicity against human MIHA cells assessed as reduction in cell viability incubated for 48 hrs by MTT assay. The data set is classed as cell-based.
Settings: not given
For orientation: Tetrazolium dyes change colour on reduction, which living cells bring about.
As to `O=C(Nc1cc(C(F)(F)F)cc(C(F)(F)F)c1)c1cc(Cl)ccc1O` [IMD-0354], the IC50 was > 100 µM.

The next data set deals with MG-63. The data set can be described thus: Cytotoxicity against human MG-63 cells assessed as reduction in cell viability incubated for 48 hrs by MTT assay. The data set is classed as functional, cell-based. The following applies: MG-63, 48 h.
Consider `O=C(Nc1cc(C(F)(F)F)cc(C(F)(F)F)c1)c1cc(Cl)ccc1O` [IMD-0354], for which the IC50 was 48.7 µM.

In a further data set the test system is U2OS. Briefly: Cytotoxicity against human U2OS cells assessed as reduction in cell viability incubated for 48 hrs by MTT assay. The data set is classed as functional, cell-based.
Settings: not given
In the case of `O=C(Nc1cc(C(F)(F)F)cc(C(F)(F)F)c1)c1cc(Cl)ccc1O` [IMD-0354], the IC50 was 50.9 µM.

Tested on in another data set: not listed separately
The data set can be described thus: Cytotoxicity against human MIHA cells assessed as reduction in cell viability at 40 uM incubated for 48 hrs by MTT assay. The data set is classed as cell-based.
Settings: not given
Take `O=C(Nc1ccc2[nH]ncc2c1)c1cc(Cl)ccc1O`: the Activity entry is recorded as “Non-Toxic”. Still for that read-out and setting: the entry for `O=C(Nc1cccc2[nH]ncc12)c1cc(Cl)ccc1O` is “Non-Toxic”. In the case of `COC(=O)CCn1cc2c(NC(=O)c3cc(Cl)ccc3O)cccc2n1`, the Activity result is listed as “Non-Toxic”. Still for that read-out and setting: for `O=C(Nc1ccc2[nH]ccc2c1)c1cc(Cl)ccc1O` the value was “Non-Toxic”. With `CN(C)C(=O)Cn1cc2c(NC(=O)c3cc(Cl)ccc3O)cccc2n1`, the Activity entry is “Non-Toxic”. The same measure, in the same setting: the entry for `O=C(Nc1cccc2c1cnn2C(=O)N1CCOCC1)c1cc(Cl)ccc1O` is “Non-Toxic”. Same read-out and setting: the entry for `CN(C)C(=O)n1ncc2c(NC(=O)c3cc(Cl)ccc3O)cccc21` is “Non-Toxic”.

As for `O=C(O)CCn1ncc2c(NC(=O)c3cc(Cl)ccc3O)cccc21`, the Activity result was “Non-Toxic”. On the same count and under the same terms, for `CN(C)C(=O)Cn1ncc2c(NC(=O)c3cc(Cl)ccc3O)cccc21` the value was “Non-Toxic”. Still for that read-out and setting: for `COC(=O)CCn1ncc2c(NC(=O)c3cc(Cl)ccc3O)cccc21` the value was “Non-Toxic”; for `O=C(Nc1cccc2cc[nH]c12)c1cc(Cl)ccc1O`, “Non-Toxic”. Same read-out and setting: the entry for `O=C(O)CCn1cc2c(NC(=O)c3cc(Cl)ccc3O)cccc2n1` is “Non-Toxic”; for `O=C(Nc1cccc2c1cnn2CCO)c1cc(Cl)ccc1O` it is “Non-Toxic”. `CN(C)c1ccc(C(=O)n2ncc3c(NC(=O)c4cc(Cl)ccc4O)cccc32)cc1`: the Activity entry was “Non-Toxic”. On the same count and under the same terms, the entry for `COc1ccc(NC(=O)n2ncc3c(NC(=O)c4cc(Cl)ccc4O)cccc32)cc1` is “Non-Toxic”; for `O=C(Nc1cc(C(F)(F)F)cc(C(F)(F)F)c1)c1cc(Cl)ccc1O` [IMD-0354] it is “Non-Toxic”. On the same count and under the same terms, the entry for `O=C(Nc1ccc2cn[nH]c2c1)c1cc(Cl)ccc1O` is “Non-Toxic”; for `O=C(Nc1cccc2cn[nH]c12)c1cc(Cl)ccc1O` it is “Non-Toxic”; for `O=C(Nc1cccc2c1cnn2C(=O)c1c(Cl)cccc1Cl)c1cc(Cl)ccc1O` it is “Non-Toxic”. Still for that read-out and setting: the entry for `O=C(Nc1cccc2[nH]ccc12)c1cc(Cl)ccc1O` is “Non-Toxic”; for `O=C(Nc1cccc2nn(CCO)cc12)c1cc(Cl)ccc1O` it is “Non-Toxic”.
